Assays:
[1] = test system: Pa UAB-M-2 (mucoidy P. aeruginosa clinical isolate from lung); test: MIC against Pa UAB-M-2; type: cell-based, Pseudomonas aeruginosa; settings: Anaerobic (+nitrate), 12 hrs
Procedure: (§1) The MICs of Composition 1 (glutathione, ascorbic acid, and HCO3); glutathione and ascorbic acid; and HCO3 were tested against clinical isolates, including Burkholderia cepacia, Pseudomonas aeruginosa (Schroeter) Migula (ATCC 27853), Pseudomonas aeruginosa (Schroeter) Migula (ATCC 9027), Pseudomonas aeruginosa (Schroeter) Migula (ATCC BAA-2114), Klebsiella pneumonia, methicillin resistant Staphylococcus aureus; laboratory strains of Moraxella catarrhalis, Stenotrophomonas maltophilia, Acinetobacter baumannii; and eight samples of mucoid and nonmucoid Pseudomonas aeruginosa clinical isolates from human lung. The MIC for laboratory clinical isolate Pseudomonas aeruginosa (Schroeter) Migula (ATCC BAA-47 (PAO1)) was also tested. The MICs were determined under anaerobic conditions on media supplemented with nitrate, under aerobic conditions supplemented with nitrate, or under ambient conditions.
(§2) The clinical isolates were inoculated in duplicate on agar plates overnight under anaerobic conditions at 36° C.±1.0° C. in a 96-well plate. Laboratory isolates of Burkholderia cepacia were also grown in duplicate overnight under aerobic conditions at 36° C.±1.0° C. in a 96-well plate. […] MICs were determined via visual inspection and OD620.

[2] = test system: Pseudomonas aeruginosa (Schroeter) Migula (ATCC BAA-47 (PAO1)); test: MIC against Pa BAA-47 (PAO1); type: cell-based; settings: Anaerobic (+nitrate), 12 hrs
Procedure: as §1, §2

[3] = test system: Pa UAB-NM-1 (nonmucoidy P. aeruginosa clinical isolate from lung); test: MIC against Pa UAB-NM-1; type: cell-based, Pseudomonas aeruginosa; settings: Anaerobic (+nitrate), 12 hrs
Procedure: as §1, §2

[4] = test system: Pa UAB-NM-5 (nonmucoidy P. aeruginosa clinical isolate from lung); test: MIC against Pa UAB-NM-5; type: cell-based, Pseudomonas aeruginosa; settings: Anaerobic (+nitrate), 12 hrs
Procedure: as §1, §2

[5] = test system: Pa UAB-NM-3 (nonmucoidy P. aeruginosa clinical isolate from lung); test: MIC against Pa UAB-NM-3; type: cell-based, Pseudomonas aeruginosa; settings: Anaerobic (+nitrate), 12 hrs
Procedure: as §1, §2

[6] = test system: MRSA UAB-1; test: MIC against MRSA UAB-1; type: cell-based, Staphylococcus aureus; settings: Anaerobic (+nitrate), 12 hrs
Procedure: as §1, §2

[7] = test system: MRSA UAB-3; test: MIC against MRSA UAB-3; type: cell-based, Staphylococcus aureus; settings: Anaerobic (+nitrate), 12 hrs
Procedure: as §1, §2

[8] = Stability: oxidized glutathione and reduced ascorbic acid after storage; type: physicochemical; settings: ascorbic acid only, pH not given; Ambient; stored at 5° C. for 4 weeks
Procedure: The amount of glutathione and ascorbic acid oxidiation were determined for Composition 1 at pH 5.5, 6.0, and 6.5. Oxidized glutathione is associated with the generation of protein-carbonyls via glutathionlyation, which occurs when oxidized glutathione dissociates and attaches to proteins. The % oxidized glutathione (% GSSG) was determined after 4 weeks of storage of Composition 1 at pH 5.5, 6.0, and 6.5 under N2-sparged and ambient conditions. Additionally, when ascorbic acid is oxidized into dehydroascorbate (DHA), DHA can break down and result in the formation of protein adducts in process called ascorbylation (Simpson et al., Biochim biophys Acta 2000; 1501:12-24). The % reduced ascorbic acid maintained in Composition 1 (% ASC) was determined after 4 weeks of storage of Composition 1 at pH 5.5, 6.0, and 6.5 under N2-sparged (anaerobic) and ambient conditions. Specifically, nitrogen-sparged samples were mixed under anaerobic conditions sparged with nitrogen, and the samples were packaged using nitrogen bubbling. Ambient samples were mixed under room air conditions and were not bubbled with nitrogen. The formulations were stored at 5° C. for 4 weeks, and the percent of oxidized glutathione (GSSG) and ascorbic acid (ASC) was measured for each sample according to standard techniques.

SMILES	MIC [1]	MIC [2]	MIC [3]	MIC [4]	MIC [5]	MIC [6]	MIC [7]	% ASC (reduced ascorbic acid maintained) [8]
O=C([O-])O.[Na+] [HCO3, sodium bicarbonate]	12.5%(12	12.5% (12	12.5%(12	12.5% (12	12.5% (12	25% (12	25% (12	–
O=C1O[C@H]([C@@H](O)CO)C(O)=C1O [Ascorbic Acid Only, ascorbic acid]	–	–	–	–	–	–	–	77.88%
